Earlier results on 1 molecule are cited in US6356845B1, “Crystallization and structure determination of Staphylococcus aureus UDP-N-acetylenolpyruvylglucosamine reductase (S. aureus MurB)” (priority 1999, dated 2002).

The target in this data set is T1, S. aureus MurB (Staphylococcus aureus, UniProt P61431).
T1 construct: His6; made in house; host or cells: E. coli K12S (F' lacIq), plasmid pQE-10 murB obtained from Human Genome Sciences
Conditions: read-out: Km for EP-UDPGlcNAc with S. aureus MurB; substrate Km; S. Swaney, personal communication.

As for `C=C(O[C@H]1[C@H](O)[C@@H](CO)O[C@H](OP(=O)(O)OP(=O)(O)OC[C@H]2O[C@@H](n3ccc(=O)[nH]c3=O)[C@H](O)[C@@H]2O)[C@@H]1NC(C)=O)C(=O)O` [EP-UDPGlcNAc, Uridine diphospho-N-acetylglucosamine enolpyruvate], the Michaelis constant (Km) is 15 µM.
